Assay results as given in article PMC11513854, “De novo GTP synthesis is a metabolic vulnerability for the interception of brain metastases” (Cell Reports Medicine, 2024).

Tests used:
normal brain cells = assay: Dose-response curves of control normal brain cells; format: cell-based, human; conditions: 72-h treatment, same concentrations (below 10 μM)
Description: (§1) PrestoBlue readout is normalized to vehicle-treated cells. Data are presented as mean ± SD from 4 technical replicates. (C) Assessment of cell viability of patient-derived BMICs treated with MPA or its vehicle. PrestoBlue readout is normalized to vehicle-treated cells, p < 0.0001. […] Sphere count normalized to vehicle-treated cells, p < 0.0001. (F and G) Percent wound closure of DMSO control vs. MPA-treated cells expressed as an average of replicates (n = 3) and images are taken at 10× magnification. Wound closure (represented by dotted white line) is measured using ImageJ on Incucyte-derived images, p values are indicated. Scale bars are 400 μm. See also Videos S1, S2, S3, and S4. Comparisons of cell viability, sphere formation, and wound closure were made via a two-tailed unpaired t test and data are presented as mean ± SD from 3 to 4 technical replicates. […]
(§2) Dose-response assays were conducted using the same protocol apart from drugs being plated using 2-fold serial dilutions (20 μM - 39 nM) as previously described.[66] The half maximal inhibitory concentration (IC50) is determined by plotting percent cell viability by the logarithmic concentration of drug. IC80 concentrations will be used for subsequent functional assays (cell proliferation, sphere formation), as determined by the following formula: ICF=100−F/F^1/H×IC50 where F = fraction of maximal response and H = hill slope.

CRUK0748-BM = assay: Dose-response assay on CRUK0748-BM line; format: cell-based, human
Description: To obtain a clinically relevant correlate to the data aforementioned, we acquired two patient-derived lung adenocarcinoma samples: one that was derived from a patient who developed BM following their primary lung tumor diagnosis (CRUK0748), and one that was derived from a patient who, to-date, has not developed BM (CRUK0733). BM-initiating capacity was confirmed in our PDX models (Figure S1C). We harvested the tagged CRUK0748 cells from the brains of mice and cultured them in stem cell-enrichment media conditions to derive a CRUK0748-BM line.
as §2

[1] = system: patient-derived lung-BMICs; assay: Intracardiac injection of lung-BMICs, daily oral gavage treatment; format: in vivo, mice; conditions: 100 mg/kg daily oral gavage, vs placebo
Description: We next wondered whether a drug used to slow down, or block, BM needed to be BBB penetrant and aimed to uncover whether MPA could target pre-metastatic BMICs in the circulation in a more clinically relevant in vivo treatment model.
All experimental procedures involving animal work has been reviewed and approved by McMaster University Animal Research Ethics Board. Non-obese diabetic-severe combined immunodeficient IL2r γ ^null (NSG) mice are used for all experiments. Equal numbers of male and female mice were used for all experiments. Healthy mice were 6–8 weeks at time of use. Mice are anesthetized by gas anesthesia using isoflurane (4% induction, 2.5% maintenance) before procedure. Cells were engineered to express firefly luciferase and were injected intracardially, orthotopically, or intracranially as previously described.[13]^,[14]^,[63]^,[64]^,[65] […] Mice are monitored weekly for signs of illness until endpoint.
Fig S3. MPA m ust cross the blood brain barrier to eff ectively slow the progression of BM over tim e, related to Figures 3 and 4. a, Mice were either orthotopically (intratho racically) or intracardiac injected with lung BMICs, […]
to placebo, but (f) had the same number of human cells detected in their brains following humane endpoint by flow cytometry. n.s. = not significant. […]

[2] = system: patient-derived BMIC lines from lung-, breast-, and melanoma-BM; assay: Dose-response curves of multiple BM lines; format: cell-based, human; conditions: 72-h treatment; below plasma Cmax concentration of 10 μM
Description: as §1, §2

patient-derived BMICs = assay: Migration (wound healing) assay; format: cell-based, human; conditions: IC80
Description: Cells were plated at a density of 15,000 to 25,000 cells (depending upon the cell line) per 70 μL media supplemented with 10% FBS into two separate wells of a bi-silicon structure within a 48-well plate. The cells were allowed to adhere for 24 h at 37C within a humidified atmosphere of 5% CO2 to form a monolayer of cells. After 24 h the silicon inserts were detached from the 48-well plate, leaving behind two monolayers of cells that are separated by an empty ‘wound’ and enabling of cell migration into the exclusion zone. […] The plate was inserted into the Incucyte in vitro imaging system where the ‘wound’ was imaged periodically over time. The Incucyte scan type chosen was 300ms adherent cell-by-cell alongside phase and green imaging channels within a 10× objective. The images were uploaded to ImageJ where the wound area was calculated to determine the wound coverage percentage.

[3] = Parallel artificial membrane permeability (PAMPA) assay; format: in vitro ADME; conditions: 50 μM, pH 7.4, 16 h; −LogPe < 6 indicate high CNS permeability
Description: The permeability of the compounds was evaluated using the parallel artificial membrane permeability (PAMPA) assay, as previously described.[35] The PAMPA assembly was consisted of the acceptor plate (MultiScreen IP Filter Plate, Millipore Sigma, Canada) and the donor plate (96 well Collection Plate, Millipore Sigma, Canada). The artificial membrane solution was prepared as 15 mg/mL of polar brain lipid from porcine (Sigma Aldrich, Oakville, Canada) in a solution of 60% chloroform/40% dodecane. Seven μL of the mixture was pipetted into each acceptor plate well (top compartment). Thereafter, 300 μL of PBS (1 × PBS, pH 7.4, 5% DMSO) solution was added to each well of the acceptor plate and 300 μL of drug-containing donor solutions (50 μM compounds in 1 × PBS, pH 7.4, 5% DMSO) to each well of the donor plate (bottom compartment) in triplicate. […] The concentration of the compounds was determined by LC/MS/MS. The effective permeability (Pe), in units of centimeter per second, was calculated using the following equation: LogPe=Log{C×[−Ln(1−[drug]acceptor/[drug]equilibrium)]} Where: C = VD × VA/[(VD + VA) × t × A]; VD = volume of donor compartment (0.30 mL); VA = volume of acceptor compartment (0.30 mL); A = filter area (0.24 cm^2 for Multi-Screen Permeability Filter plate); and t = incubation time (in seconds).

COc1c(C)c2c(c(O)c1C/C=C(\C)CCC(=O)O)C(=O)OC2 [MPA, Mycophenolic acid]
toxicity to normal brain cells (normal brain cells): nontoxic
BMIC proliferation, dose-response (CRUK0748-BM): inhibits BMIC proliferation
brain tumor burden ([1]; 7 days post-injection): significantly reduced brain tumor burden
difference in brain tumor burden ([1]; 14 days post-injection): no longer observed
anti-BMIC activity against multiple BMIC lines [2]: relatively high anti-BMIC activity
migration of patient-derived BMICs (patient-derived BMICs): inhibits the migration

COc1c(C)c2c(c(O)c1C/C=C(\C)CCC(=O)OCCN1CCCC1)C(=O)OC2 [Compound 3]
BBB penetrance by PAMPA [3]: BBB penetrant
